Measured values: patent US20140342065A1 (priority 2012, published 2014)

How the values were obtained:
[1] = tested on: fruits, vegetables, meat, chicken and salmon; yeast and/or bacteria; test: Food preservation with 500 mg NaHS in closed container at room temperature (FIG. 10)
Procedure: Representative samples of foods shown include fruits, vegetables, meat, chicken and salmon. […] Foods and fruits were stored in closed containers. The containers were made of aluminum with a plastic lid that snugly fitted onto the container rim. […] Control group (Control) of foods and fruits were stored within the containers. The experimental group (Exp) of foods and fruits were placed in the same type of containers and 500 mg of NaHS was placed in a glass cup which was placed in one corner of the container of the Exp group. The containers were not sealed. Using a H2S gas detector capable of detecting 1 to 500 ppm of H2S, no H2S was detected outside the containers. The amount of gas within the Exp containers varied from 5-40 ppm during the course of exposure. […] Experiments were carried out at room temperature for the durations shown. […] There is small change in color, consistency, and of the same food group and there is no evidence of growth of yeast in the NaHS treated group. Strawberry 80. […] The fruit also lost its consistency and is discolored. […] Raspberry 82. Growth of yeast is seen by day 4 and is pronounced on day 6 (arrow 83) in the control group. The fruit also lost its consistency and is discolored. […] Blackberry 84. Growth of yeast is seen by day 4 which is pronounced by day 6 (arrow 85) in the control group. The fruit also lost its consistency and is discolored. […] Banana 86. Growth of yeast is seen by day 8 (arrow 87) in the control group. The fruit also lost its consistency and is discolored. […] Sprout 88. Growth of yeast and bacteria is seen by day 4 (arrow 89) in the control group. Sprout also lost its consistency and is discolored. […] Leek 90. The vegetable is discolored in the control group by day 3. […] Avocado 91. Avocado was either homogenized (top two rows) or cut into small 1×1 cm pieces (bottom two rows) and stored in the containers. […] Mushroom 92. Mushroom is discolored in the control group. […] Cantaloupe 93. Growth of yeast is seen by day 3 and is severe on day 4 (arrows 94) in the control group. The fruit also lost its consistency and is discolored. […] Red meat 95 (top), Chicken 96 (middle) and Salmon 97 (Bottom). The control container developed a foul smell on day 3 which was pronounced on day 4. Larvae developed on day 3 in the control group and flies were found on day 4 in the control group. […] Agar plate cultures, 98. Samples from each fruit were diluted in phosphate buffered saline, pH 7.4. From each sample, 20 microliters was streaked on agar plates and plates were maintained either at room temperature or at 37° C. Samples from control group yielded bacteria or yeast only from control group. To directly test growth of these bacteria and yeast in presence of NaHS, samples of bacteria and yeast were streaked on agar plates and then stored without or with NaHS. 50 mg of NaHS was placed in an aluminum chamber and these were inserted on both sides of the Exp Petri dishes. Petri dishes were placed at room temperature or at 37° C. Colonies of bacteria and yeast were evident in the control group on day 1 and coalesced by day 3 as shown in the representative cultures 98. […] No growth was found for up to 2 months following initiation of cultures.

bacteria and yeast = test: Agar plate cultures stored with 50 mg NaHS (FIG. 10, 98); assay type: cell-based
Procedure: Representative samples of foods shown include fruits, vegetables, meat, chicken and salmon. […] Foods and fruits were stored in closed containers. The containers were made of aluminum with a plastic lid that snugly fitted onto the container rim. […] Control group (Control) of foods and fruits were stored within the containers. The experimental group (Exp) of foods and fruits were placed in the same type of containers and 500 mg of NaHS was placed in a glass cup which was placed in one corner of the container of the Exp group. The containers were not sealed. Using a H2S gas detector capable of detecting 1 to 500 ppm of H2S, no H2S was detected outside the containers. The amount of gas within the Exp containers varied from 5-40 ppm during the course of exposure. […] Experiments were carried out at room temperature for the durations shown. […] There is small change in color, consistency, and of the same food group and there is no evidence of growth of yeast in the NaHS treated group. Strawberry 80. […] The fruit also lost its consistency and is discolored. […] Raspberry 82. Growth of yeast is seen by day 4 and is pronounced on day 6 (arrow 83) in the control group. The fruit also lost its consistency and is discolored. […] Blackberry 84. Growth of yeast is seen by day 4 which is pronounced by day 6 (arrow 85) in the control group. The fruit also lost its consistency and is discolored. […] Banana 86. […]

freshly cut broccoli = test: NaHS solution fumigation of freshly cut broccoli
Procedure: (§1) Aqueous NaHS solutions (0.25-3.5 mmol/L) could release H2S gas (10^−12˜10^−10 mol/L). H2S rapidly, reached to the highest levels within several minutes and maintained a constant concentration. […] The NaHS solution was renewed every 48 or 72 hours. The NaHS solution was placed in a sealed container separated by a partition board with pores on it. The fresh cut vegetables including Broccoli, Lettuce, Lotus Root, Yam, Pumpkin, Sweet Potato, Potato, etc, and the fresh cut fruits Apple, Pear, Kiwi Fruit, Tomato, Hami Melon, and Peach were placed above the board, while the NaHS solution was placed under the board. Therefore, the fresh cut vegetables and fruits were fumigated with H2S gas released from NaHS in the solution.
The controls of fresh cut broccoli that were treated with water (0.0 mmol/L NaHS) solution lost their edibility on day 3, while the shelf life of freshly cut broccoli treated with 0.25 mmol/L-1.75 mmol/L NaHS solution was prolonged by 2-3 days. […] The control of freshly cut broccoli treated with 0.0 mmol/L NaHS solution underwent rot process (due to physiological senescence and microbe infection) at 4 days, and the moldy rate reached 100%. In contrast, the treatment with 1.5 mmol/L H2S donor, NaHS, inhibited the infection by micro-organisms, and no infection appeared until day 9.

[2] = tested on: freshly cut pears and peaches; test: NaHS solution fumigation of freshly cut pears and peaches
Procedure: as §1
The control of freshly cut pears and peaches that were treated with water (0.0 mml/L NaHS), lost their edibility on day 2, while the shelf life of freshly cut pear and peach treated with 0.5 mmol/L-2.0 mmol/L NaHS solution was prolonged by 1-2 days. […] The control freshly cut pears and peaches treated with 0.0 mmol/L NaHS solution underwent rot process (due to physiological senescence and microbe infection) in 2.5 days, and the moldy rate reached 100% in 4 days.

freshly cut Kiwi fruits = test: NaHS solution fumigation of freshly cut Kiwi fruits
Procedure: as §1
The control freshly cut Kiwi fruits that were treated with water (0.0 mmol/L NaHS) lost their color and their edibility completely on day 4, while the shelf life of freshly cut Kiwi fruits treated with 0.25 mmol/L-1.75 mmol/L NaHS solution was prolonged by 2-3 days. […] The control freshly cut Kiwi fruits treated with 0.0 mmol/L NaHS solution underwent rot process in 5 days, and the rot rate reached 100% in 7 days.

[3] = tested on: freshly cut chips of lettuce and lotus roots; test: NaHS solution fumigation of freshly cut chips of lettuce and lotus roots
Procedure: as §1
The control freshly cut chips of lettuce and lotus roots that were treated with water (0.0 mmol/L NaHS) lost their water and edibility after 15-24 hours, while the freshness of freshly cut chips of lettuce and lotus roots treated with 0.1 mmol/L-1.0 mmol/L NaHS solution was prolonged by 12-18 hours.

[4] = tested on: Mollusks, bees, grasshopper, drosophila, butterflies, and flies; details: in vivo
From the text: First, it can be used in a closed space for the growth of crop and to protect the crop by its insecticidal, fungicidal, rodenticidal, pediculicidal, and biocidal actions.

`S` [NaHS, sodium hydrosulfide] was tested, and the “food spoilage and growth of mold and/or bacteria” value ([1]; 500 mg NaHS, H2S 5-40 ppm in container, room temperature) was “prevents food spoilage and growth of mold and/or bacteria”, the discoloration ([1]; Avocado homogenized or cut pieces, day 3) was “maintained nearly the same color as that on day 1” and the “yeast growth, loss of consistency, discoloration” value (shortened to “yeast growth, loss of consistency”) ([1]; Banana, day 8) was “These changes are not seen in the Exp group”. The “yeast growth, loss of consistency” value ([1]; Blackberry, day 6) was “These changes are not seen in the Exp group”, the “yeast growth, loss of consistency” value ([1]; Cantaloupe, day 4) was “These changes are not seen in the Exp group” and the discoloration ([1]; Leek, day 3) was “These changes are not seen in the Exp group”. The discoloration ([1]; Mushroom) was “These changes are less severe in the Exp group”, the “yeast growth, loss of consistency” value ([1]; Raspberry, day 6) was “These changes are not seen in the Exp group” and the “discoloration, foul smell, larvae and flies” value ([1]; Red meat, Chicken and Salmon, day 4) was “Meat discolored in the Exp group on day 4 but there was no evidence of foul smell or flies”. For the same compound, the “growth of yeast and bacteria, loss of consistency, discoloration” value ([1]; Sprout, day 4) was “These changes are not seen in the Exp group”, the “yeast growth, loss of consistency” value ([1]; Strawberry, day 4) was “These changes are not seen in the Exp group” and the “time without growth following initiation of cultures” value (bacteria and yeast) was “up to 2 months”. The “colonies of bacteria and yeast on agar plates” value (bacteria and yeast; room temperature or 37° C., day 1-3) was “no growth was evident”, the “shelf life prolonged by” value (freshly cut broccoli; 0.25 mmol/L-1.75 mmol/L NaHS, control lost edibility on day 3) was 2 to 3 days and the “shelf life prolonged by” value (freshly cut broccoli; 1.5 mmol/L NaHS (most optimal)) was 3 days. The “day until which no infection by micro-organisms appeared” value (freshly cut broccoli; 1.5 mmol/L NaHS, control moldy rate 100% at 4 days) was 9 days, the “shelf life prolonged by” value ([2]; 0.5 mmol/L-2.0 mmol/L NaHS, control lost edibility on day 2) was 1 to 2 days and the “shelf life prolonged by” value ([2]; 1.5 mmol/L NaHS (best)) was 2 days. The “day until which micro-organisms did not appear” value ([2]; 1.5-2.0 mmol/L NaHS) was 5 days, the moldy rate ([2]; 1.5-2.0 mmol/L NaHS, after 10 days, control 100% in 4 days) was 80% and the “shelf life prolonged by” value (freshly cut Kiwi fruits; 0.25 mmol/L-1.75 mmol/L NaHS, control lost edibility on day 4) was 2 to 3 days. For the same compound, the “shelf life prolonged by” value (freshly cut Kiwi fruits; 1.5 mmol/L NaHS (best)) was 2 days, the “day until which micro-organisms did not appear” value (freshly cut Kiwi fruits; 1.5 mmol/L NaHS, control rot rate 100% in 7 days) was 10 days and the “freshness prolonged by” value ([3]; 0.1 mmol/L-1.0 mmol/L NaHS, control lost water and edibility after 15-24 hours) was 12 to 18 h. The “freshness prolonged by” value ([3]; 0.8 mmol/L-1.0 mmol/L NaHS (best)) was 18 h and the death of pests [4] was “die within seconds”.
